Molecular target: T1, S1P1 receptor (Homo sapiens, UniProt P21453)
T1 construct: expressed in transfected cells; membrane preparation
Assay: 35S-GTPγS binding assay using membrane preparation of CHO cell stably expressing S1P1 receptor
Type: biochemical
Conditions: agonist activity
Method: ^35s-GTPγS binding assay using membrane preparation of CHO cell stably expressing S1P1 receptor
A G protein-GTPγS binding test associated with a ligand was performed by using a membrane preparation which was obtained from a CHO cell which stably overexpressed S1P1 receptor. In a 96 well-micro-titer dish, the produced membrane protein and a compound which was diluted with a solvent such as DMSO or sphingosine-1-phosphate in various concentrations was incubated in a solution containing 20 mM of Tris-Cl (pH7.5), 100 mM of NaCl, 10 mM of MgCl2, 5μM of GDP, 0.1% of BSA, and […] of ^35s-GTPγS (specific radioactivity, 1250 Ci mmol). The binding was performed for 1 or more hours at room temperature, and the membrane was harvested on a GF/B filter plate by using a Millipore's MultiScreen Separation System to end the binding. After the filter plate was dried for 30 or more minutes, 25 μL of MicroScint-20 was added to each well, and the binding was measured by using the TopCount.
For the agonist activity of compound, the value of a well which a solvent was added to was set to a control value and compared with an increment of an evaluation compound-added well, so that the increment of each concentration of the compound was obtained. EC50 value was calculated under the definition that the value is an agonist concentration required to provide 50% of the maximum increment thereof. […]

T1 sequence (P21453 whole entry): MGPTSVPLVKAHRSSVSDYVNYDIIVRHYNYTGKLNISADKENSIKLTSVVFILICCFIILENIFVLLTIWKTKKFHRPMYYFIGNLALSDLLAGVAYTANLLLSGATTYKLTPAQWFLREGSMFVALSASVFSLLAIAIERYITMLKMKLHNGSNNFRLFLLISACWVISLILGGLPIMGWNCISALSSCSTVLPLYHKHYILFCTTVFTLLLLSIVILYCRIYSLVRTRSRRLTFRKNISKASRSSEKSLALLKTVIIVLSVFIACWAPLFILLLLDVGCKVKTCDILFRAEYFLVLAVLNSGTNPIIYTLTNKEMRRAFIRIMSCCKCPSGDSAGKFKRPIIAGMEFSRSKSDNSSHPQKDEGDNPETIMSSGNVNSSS

Row | EC50 | SMILES
1 | 14 nM | O=C(O)CCNCc1ccc(-c2noc(-c3ccc(-c4ccc(F)cc4)cc3)n2)cc1 [Example 69]
2 | 6.4 nM | O=C(O)CCNCc1ccc(OCc2cc(-c3ccccc3)c(C(F)(F)F)s2)c(F)c1 [Example 152]
3 | 0.41 nM | CCc1cc(-c2nc(-c3ccc(CNCCC(=O)O)cc3)no2)ccc1-c1ccccc1 [Example 101]
4 | 0.41 nM | CCc1cc(-c2nc(-c3ccc(CNCCC(=O)O)cc3)no2)ccc1-c1ccccc1C#N [Example 102]
5 | 42 nM | O=C(O)CCNCc1ccc(-c2noc(-c3ccc(-c4ccccn4)cc3)n2)cc1 [Example 50]
6 | 1.6 nM | O=C(O)CCNCc1ccc(-c2noc(-c3ccc(OC4CCCCC4)c(C(F)(F)F)c3)n2)cc1 [Example 45]
7 | 0.04 nM | Cc1cc(-c2nc(-c3ccc(CNCCC(=O)O)cc3)no2)ccc1-c1cscc1C [Example 115]
8 | 27 nM | O=C(O)CCNCc1ccc(OCc2cc(-c3ccccc3)c(C(F)(F)F)s2)c(Br)c1 [Example 151]
9 | 1.7 nM | O=C(O)CCNCc1ccc(-c2noc(-c3ccc(-c4ccccc4OC(F)(F)F)c(C(F)(F)F)c3)n2)cc1 [Example 100]
10 | 4.5 nM | O=C(O)CCNCc1ccc(OCc2cc(-c3ccccc3)c(C(F)(F)F)s2)cc1Cl [Example 149]
11 | 121 nM | O=C(O)[C@@H]1C[C@@H](O)[C@H](NCc2ccc(OCc3cc(-c4ccccc4)c(C(F)(F)F)s3)cc2)C1 [Example 15]
12 | 11 nM | CC(C)Sc1ccc(-c2nc(-c3ccc(CNCCC(=O)O)cc3)no2)cc1 [Example 83]
13 | 0.25 nM | Cc1cc(-c2nc(-c3ccc(CNCCC(=O)O)cc3)no2)ccc1C1CCCC1 [Example 91]
14 | 0.34 nM | Cc1cc(-c2nc(-c3ccc(CNCCC(=O)O)cc3)no2)ccc1-c1ccc(F)cc1 [Example 75]
15 | 0.17 nM | N#Cc1cc(-c2nc(-c3ccc(CNCCC(=O)O)cc3)no2)ccc1-c1ccccc1F [Example 89]
16 | 0.27 nM | Cc1cc(CNCCC(=O)O)ccc1-c1noc(-c2ccc(CC(C)C)cc2)n1 [Example 144]
17 | 4.5 nM | O=C(O)[C@H]1C[C@H](NCc2ccc(-c3noc(-c4cc(-c5ccccc5)c(C(F)(F)F)s4)n3)cc2)C1 [Example 130]
18 | 0.2 nM | Cc1cc(-c2nc(-c3ccc(CNCCC(=O)O)cc3)no2)ccc1C1CCCCC1 [Example 92]
19 | 21 nM | O=C(O)[C@@H]1CC[C@@H](NCc2ccc(-c3noc(-c4cc(-c5ccccc5)c(C(F)(F)F)s4)n3)cc2)C1 [Example 138]
20 | 1.2 nM | Cc1cc(-c2nc(-c3ccc(CN[C@H]4C[C@H](C(=O)O)C4)cc3)no2)ccc1-c1ccccc1 [Example 134]
21 | 87 nM | O=C(O)[C@@H]1CC=C[C@@H](NCc2ccc(OCc3cc(-c4ccccc4)c(C(F)(F)F)s3)cc2)C1 [Example 24]
22 | 0.31 nM | Cc1cc(-c2nc(-c3ccc(CNCCC(=O)O)cc3)no2)ccc1-c1ccccc1C(F)(F)F [Example 86]

Row | EC50 | SMILES
23 | 16 nM | CC(C)Cc1ccc(-c2nc(-c3ccc(CNCCC(=O)O)s3)no2)cc1 [Example 128]
24 | 0.6 nM | CC(C)Oc1ccc(-c2nc(-c3ccc(CNCCC(=O)O)cc3)no2)cc1C(F)(F)F [Example 49]
25 | 160 nM | O=C(O)[C@@H]1CC[C@H](NCc2ccc3cnn(Cc4ccc(-c5ccccc5)cc4)c3c2)C1 [Example 35, (1R,3s)-3-N-({1-(4-phenylbenzyl)-1H-indazol-6-yl)methyl}aminocyclopentane carboxylic acid]
26 | 0.8 nM | O=C(O)CCNCc1ccc(-c2noc(-c3ccc(-c4ccccc4F)cc3)n2)cc1 [Example 67]
27 | 5.5 nM | O=C(O)CCNCc1ccc(-c2noc(-c3ccc(-c4cccc(F)c4)cc3)n2)cc1 [Example 68]
28 | 0.37 nM | O=C(O)CCNCc1ccc(-c2noc(-c3ccc(-c4ccccc4F)c(C(F)(F)F)c3)n2)cc1 [Example 98]
29 | 10 nM | N#Cc1ccccc1-c1ccc(-c2nc(-c3ccc(CNCCC(=O)O)cc3)no2)c(F)c1 [Example 88]
30 | 4.5 nM | Cc1cc(CN[C@H]2C[C@H](C(=O)O)C2)ccc1-c1noc(-c2ccc(CC(C)C)cc2)n1 [Example 146, (1R,3R)-3-(4-(5-(4-isobutylphenyl)-1,2,4,-oxadiazol-3-yl)-3-methylbenzylamino)cyclobutanecarboxylic acid]
31 | 23 nM | CC(C)Cc1ccc(-c2nc(-c3ccc(CN[C@@H]4CC[C@@H](C(=O)O)C4)cc3)no2)cc1 [Example 139]
32 | 370 nM | O=C(O)C(CO)NCc1ccc(OCc2cc(-c3ccccc3)c(C(F)(F)F)s2)cc1 (centres unmarked) [Example 27]
33 | 0.4 nM | O=C(O)CCNCc1ccc(-c2noc(-c3ccc(-c4ccccc4C(F)(F)F)cc3)n2)cc1 [Example 62]
34 | 13 nM | Cc1cc(-c2nc(-c3ccc(CNCCC(=O)O)cc3)no2)ccc1-c1ccc(C(F)(F)F)cc1 [Example 77]
35 | 0.12 nM | Cc1cc(-c2nc(-c3ccc(CNCCC(=O)O)cc3)no2)ccc1-c1cccc(F)c1 [Example 74]
36 | 0.35 nM | Cc1cc(-c2nc(-c3ccc(CNCCC(=O)O)cc3)no2)ccc1-c1cccc(C(F)(F)F)c1 [Example 76]
37 | 3.9 nM | O=C(O)CCNCc1ccc(-c2noc(-c3ccc(/C=C/C(F)(F)F)cc3)n2)cc1 [Example 103]
38 | 13 nM | O=C(O)CCNCc1ccc(-c2noc(-c3cnc(OC4CCCC4)c(Cl)c3)n2)cc1 [Example 44]
39 | 1.3 nM | O=C(O)CCNCc1ccc(-c2noc(-c3ccc(-c4ccccc4C(F)(F)F)c(C(F)(F)F)c3)n2)cc1 [Example 99]
40 | 46 nM | CC(C)/C=C/CCCCc1nc(-c2ccc(CNCCC(=O)O)cc2)no1 [Example 43]
41 | 0.29 nM | CCc1cc(-c2nc(-c3ccc(CNCCC(=O)O)cc3)no2)ccc1-c1ccccc1F [Example 108]
42 | 69 nM | O=C(O)CCNCc1ccc(-c2noc(-c3ccc(-c4ccc(C(F)(F)F)cc4)cc3)n2)cc1 [Example 57]
43 | 25 nM | O=C(O)CCNCc1ccc(-c2noc(-c3ccc(-c4ncccc4C(F)(F)F)cc3)n2)cc1 [Example 41]
44 | 0.07 nM | Cc1cc(-c2nc(-c3ccc(CNCCC(=O)O)cc3)no2)ccc1-c1ccsc1 [Example 113]

Row | EC50 | SMILES
45 | 6.7 nM | Cc1cc(-c2nc(-c3ccc(CN[C@@H]4CC[C@@H](C(=O)O)C4)cc3)no2)ccc1-c1ccccc1 [Example 142]
46 | 1.5 nM | Cc1cc(-c2nc(-c3ccc(CNCCC(=O)O)cc3)no2)ccc1-c1ccco1 [Example 116]
47 | 0.45 nM | Cc1cc(-c2nc(-c3ccc(CNCCC(=O)O)cc3)no2)ccc1-c1ccccc1C(C)C [Example 118]
48 | 3 nM | O=C(O)CCNCc1ccc(-c2noc(-c3ccc(-c4ccccc4)cc3)n2)cc1 [Example 48]
49 | 0.34 nM | Cc1cc(-c2nc(-c3ccc(CNCCC(=O)O)cc3)no2)ccc1-c1cccs1 [Example 112]
50 | 56 nM | Cc1cc(-c2ccccc2F)ccc1-c1nc(-c2ccc(CNCCC(=O)O)cc2)no1 [Example 58]
51 | 161 nM | O=C(O)C1CCC(NCc2ccc(OCc3cc(-c4ccccc4)c(C(F)(F)F)s3)cc2)CC1 (centres unmarked) [Example 9]
52 | 234 nM | O=C(O)[C@H]1CC[C@@H](NCc2ccc(OCc3cc(-c4ccccc4)c(C(F)(F)F)s3)cc2)CC1 [Example 13]
53 | 34 nM | Cc1cc(-c2ccccc2)ccc1-c1nc(-c2ccc(CNCCC(=O)O)cc2)no1 [Example 55]
54 | 0.17 nM | Cc1cc(-c2nc(-c3ccc(CNCCC(=O)O)cc3)no2)ccc1-c1ccccc1Cl [Example 111]
55 | 3.6 nM | O=C(O)CCNCc1ccc(-c2noc(-c3ccc(-c4ccccc4F)s3)n2)cc1 [Example 120]
56 | 0.35 nM | Cc1ccccc1-c1ccc(-c2nc(-c3ccc(CNCCC(=O)O)cc3)no2)cc1C [Example 110]
57 | 268 nM | O=C(O)[C@@H]1C[C@H](NCc2ccc(OCc3cc(-c4ccccc4)c(C(F)(F)F)s3)cc2)CN1 [Example 22]
58 | 94 nM | O=C(O)[C@@H]1C[C@H](O)[C@H](NCc2ccc(OCc3cc(-c4ccccc4)c(C(F)(F)F)s3)cc2)C1 [Example 16]
59 | 4 nM | CC(C)COc1ccc(-c2nc(-c3ccc(CN[C@H]4C[C@H](C(=O)O)C4)cc3)no2)cc1C(F)(F)F [Example 136]
60 | 0.2 nM | O=C(O)CCNCc1ccc(-c2noc(-c3cc(-c4ccccc4)c(C(F)(F)F)s3)n2)s1 [Example 124]
61 | 251 nM | O=C(O)[C@H]1CC[C@@H](NCc2ccc(OCc3cc(-c4ccccc4)c(C(F)(F)F)s3)cc2)C1 [Example 18]
62 | 25 nM | O=C(O)CCNCc1ccc(-c2noc(-c3ccc(-c4ccccc4)cn3)n2)cc1 [Example 95]
63 | 0.19 nM | Cc1cc(-c2nc(-c3ccc(CNCCC(=O)O)cc3)no2)ccc1-c1ccccc1OC(F)(F)F [Example 114]
64 | 37 nM | COc1cc(OCc2cc(-c3ccccc3)c(C(F)(F)F)s2)ccc1CNCCC(=O)O [Example 150]

Row | SMILES | EC50
65 | O=C(O)CCNCc1ccc(OCc2ccc3c(cnn3Cc3ccccc3)c2)cc1 [Example 37, 3-(4-(1-benzyl-1H-indazol-5-yl)methoxy)benzylaminopropanoic acid] | 64 nM
